Assay results published in patent US20250136606A1, “MODULATORS OF TRPML, THEIR COMPOSITIONS AND METHODS OF USE” (Caraway Therapeutics, Inc., priority 2021, published 2025).

Columns and labels:
Assay type in all cases: cell-based
Conditions in all cases: fluorescent calcium assay
[1] = target: TRPML1 (Homo sapiens, UniProt Q9GZU1); test: Fluorescent TRPML1 assay (Fluo4-AM calcium fluorescence in doxycycline-induced HEK-293 Trex cells)
Method in brief: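 HEK-293 Trex cells stably carrying human TRPML1 (surface-trafficking mutant) were induced overnight with 0.5 ug/mL doxycycline, loaded with 1 micromolar Fluo4-AM, and suspended in Ringer's with 10 mM calcium. Compounds at 20 micromolar to 6 nanomolar final, half-log steps, triplicate; fluorescence 480/540 nm gave percent activity versus controls and EC50 by non-linear regression.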

[2] = target: T1, TRPML3 (Homo sapiens, UniProt Q8TDD5); test: Fluorescent TRPML3 assay (performed as for TRPML1, substituting the TRPML3 subtype)
T1 construct: expressed in transfected cells
T1 sequence (Q8TDD5 1-553): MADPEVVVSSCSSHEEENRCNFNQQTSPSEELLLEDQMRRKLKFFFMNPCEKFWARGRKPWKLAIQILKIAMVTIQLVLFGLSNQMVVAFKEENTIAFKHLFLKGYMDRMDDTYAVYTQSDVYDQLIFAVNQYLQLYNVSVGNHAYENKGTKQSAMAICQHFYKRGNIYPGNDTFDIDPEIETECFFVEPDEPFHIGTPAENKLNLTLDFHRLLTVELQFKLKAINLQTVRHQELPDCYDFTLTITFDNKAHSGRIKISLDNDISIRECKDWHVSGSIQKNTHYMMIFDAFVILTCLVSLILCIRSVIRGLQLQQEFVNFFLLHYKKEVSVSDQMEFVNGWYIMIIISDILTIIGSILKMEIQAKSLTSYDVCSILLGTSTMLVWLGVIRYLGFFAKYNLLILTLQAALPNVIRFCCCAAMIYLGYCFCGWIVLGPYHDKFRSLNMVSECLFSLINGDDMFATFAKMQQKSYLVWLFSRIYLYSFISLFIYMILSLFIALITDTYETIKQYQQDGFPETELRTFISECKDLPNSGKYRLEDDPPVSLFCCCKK
Method in brief: (§1)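 HEK-293 Trex, dox-induced (0.5 ug/mL), mutated for surface expression. Fluo4-AM 1 micromolar load ~60 min, dark; buffer modified Ringer's, 10 mM Ca. Cpds 20 micromolar–6 nanomolar final, half-log, n=3. Read ex 480/em 540; % activity vs controls; EC50 nonlinear fit.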

[3] = target: T2, TRPML2 (Homo sapiens, UniProt Q8IZK6); test: Fluorescent TRPML2 assay (performed as for TRPML1, substituting the TRPML2 subtype)
T2 construct: expressed in transfected cells
T2 sequence (Q8IZK6 1-566): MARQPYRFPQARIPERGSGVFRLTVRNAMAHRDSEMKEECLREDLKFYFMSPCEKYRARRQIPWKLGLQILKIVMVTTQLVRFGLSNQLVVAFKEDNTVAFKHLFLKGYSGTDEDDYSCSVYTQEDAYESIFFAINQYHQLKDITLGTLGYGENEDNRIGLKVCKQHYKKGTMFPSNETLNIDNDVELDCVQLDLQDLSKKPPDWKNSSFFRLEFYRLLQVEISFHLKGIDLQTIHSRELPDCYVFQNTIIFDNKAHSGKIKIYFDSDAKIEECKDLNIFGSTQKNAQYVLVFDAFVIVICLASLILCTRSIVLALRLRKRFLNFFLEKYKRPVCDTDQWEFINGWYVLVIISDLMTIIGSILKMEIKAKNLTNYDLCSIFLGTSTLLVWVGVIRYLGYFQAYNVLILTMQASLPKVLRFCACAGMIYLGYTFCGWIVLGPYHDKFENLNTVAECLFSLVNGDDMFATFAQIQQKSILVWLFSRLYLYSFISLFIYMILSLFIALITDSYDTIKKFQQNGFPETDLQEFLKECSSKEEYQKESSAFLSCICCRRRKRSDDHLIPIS
Method in brief: as §1

Sequence of TRPML1 (Q9GZU1 whole entry L15A/L16A/L577A/L578A, form open): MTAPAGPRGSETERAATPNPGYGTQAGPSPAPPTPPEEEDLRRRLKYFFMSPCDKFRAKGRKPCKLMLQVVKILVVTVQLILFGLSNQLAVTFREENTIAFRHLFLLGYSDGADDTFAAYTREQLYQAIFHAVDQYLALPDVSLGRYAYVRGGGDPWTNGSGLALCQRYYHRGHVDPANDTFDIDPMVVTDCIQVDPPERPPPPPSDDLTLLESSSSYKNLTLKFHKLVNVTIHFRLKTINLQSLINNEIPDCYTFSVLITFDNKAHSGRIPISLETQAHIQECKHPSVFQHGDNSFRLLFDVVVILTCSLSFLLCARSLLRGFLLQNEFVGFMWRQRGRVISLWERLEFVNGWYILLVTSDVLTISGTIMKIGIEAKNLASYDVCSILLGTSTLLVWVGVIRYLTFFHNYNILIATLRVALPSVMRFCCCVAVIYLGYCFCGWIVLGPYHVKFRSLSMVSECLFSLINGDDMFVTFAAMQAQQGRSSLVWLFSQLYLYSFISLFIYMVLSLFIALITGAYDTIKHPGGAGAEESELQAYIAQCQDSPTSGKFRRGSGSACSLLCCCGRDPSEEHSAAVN

In the case of `C[C@@H]1CN(C(=O)OC(C)(C)C)CCN1c1ncnc2c1c(N1CCCC1)cn2-c1cc(F)cc(F)c1` [Compound 255, tert-butyl (R)-4-(7-(3,5-difluorophenyl)-5-(pyrrolidin-1-yl)-7H-pyrrolo[2,3-d]pyrimidin-4-yl)-3-methylpiperazine-1-carboxylate], the EC50 [1] is reported as 100 to 500 nM, the EC50 [2] is reported as 100 to 500 nM and the EC50 [3] is reported as 500 to 2000 nM.
With `CC[C@@H]1CN(c2ncnc3c2c(C2CC2)cn3-c2cc(F)cc(F)c2)CCN1C(=O)OC(C)(C)C` [Compound 256, tert-butyl (R)-4-(5-cyclopropyl-7-(3,5-difluorophenyl)-7H-pyrrolo[2,3-d]pyrimidin-4-yl)-2-ethylpiperazine-1-carboxylate] the EC50 [1] was less than 100 nM, the EC50 [2] was less than 100 nM and the EC50 [3] was 500 to 2000 nM.
Molecule `CC[C@H]1CN(c2ncnc3c2c(C2CC2)cn3-c2cc(F)cc(F)c2)CCN1C(=O)OC(C)(C)C` [Compound 257, tert-Butyl (S)-4-(5-cyclopropyl-7-(3,5-difluorophenyl)-7H-pyrrolo[2,3-d]pyrimidin-4-yl)-2-ethylpiperazine-1-carboxylate] has an EC50 [1] of 100 to 500 nM, an EC50 [2] of 100 to 500 nM and an EC50 [3] of 500 to 2000 nM.
For `CC(C)(C)OC(=O)N1CCN(c2ncnc3c2c(C2CC2)cn3-c2cc(F)cc(F)c2)CC12CC2` [Compound 258, tert-Butyl 7-(5-cyclopropyl-7-(3,5-difluorophenyl)-7H-pyrrolo[2,3-d]pyrimidin-4-yl)-4,7-diazaspiro[2.5]octane-4-carboxylate], the EC50 [1] was less than 100 nM, the EC50 [2] was less than 100 nM and the EC50 [3] was 500 to 2000 nM.
For `C[C@H]1CN(C(=O)OC(C)(C)C)CCN1c1ncnc2c1c(C1CC1)cn2-c1cncc(C#N)c1` [Compound 259], the EC50 [1] was 100 to 500 nM, the EC50 [2] was 100 to 500 nM and the EC50 [3] was 500 to 2000 nM.
`C[C@H]1CN(C(=O)OC(C)(C)C)CCN1c1ncnc2c1c(C1CC1)cn2-c1cc(C#N)ccn1` [Compound 260] gave an EC50 [1] of less than 100 nM, an EC50 [2] of less than 100 nM and an EC50 [3] of less than 100 nM.
For `C[C@H]1CN(C(=O)OC(C)(C)C)CCN1c1ncnc2c1c(C1CCOCC1)nn2-c1ccccc1` [Compound 261, tert-butyl (S)-3-methyl-4-(1-phenyl-3-(tetrahydro-2H-pyran-4-yl)-1H-pyrazolo[3,4-d]pyrimidin-4-yl)piperazine-1-carboxylate], the EC50 [1] was 500 to 2000 nM, the EC50 [2] was 500 to 2000 nM and the EC50 [3] was greater than 2000 nM.
Work on `C[C@@H]1CN(c2ncnc3c2c(N2CCC[C@@H]2C)cn3-c2cccc(Cl)c2)CCN1C(=O)OC(C)(C)C` [Compound 262, tert-butyl (R)-4-(7-(3-chlorophenyl)-5-((S)-2-methylpyrrolidin-1-yl)-7H-pyrrolo[2,3-d]pyrimidin-4-yl)-2-methylpiperazine-1-carboxylate] yielded an EC50 [1] of less than 100 nM, an EC50 [2] of 100 to 500 nM and an EC50 [3] of 500 to 2000 nM.
`COc1cccc(-n2cc(C3CC3)c3c(N4CCN(C(=O)OC(C)(C)C(F)(F)F)C[C@@H]4C)ncnc32)c1` [Compound 263, 1,1,1-trifluoro-2-methylpropan-2-yl (S)-4-(5-cyclopropyl-7-(3-methoxyphenyl)-7H-pyrrolo[2,3-d]pyrimidin-4-yl)-3-methylpiperazine-1-carboxylate] was tested, and the EC50 [1] was 100 to 500 nM, the EC50 [2] was 100 to 500 nM and the EC50 [3] was 500 to 2000 nM.
In the case of `COc1cc(OC(F)(F)F)cc(-n2cc(C3CC3)c3c(N4CCN(C(=O)OC(C)(C)C)C[C@@H]4C)ncnc32)c1` [Compound 264, tert-butyl (S)-4-(5-cyclopropyl-7-(3-methoxy-5-(trifluoromethoxy)phenyl)-7H-pyrrolo[2,3-d]pyrimidin-4-yl)-3-methylpiperazine-1-carboxylate], the EC50 [1] is reported as 100 to 500 nM, the EC50 [2] is reported as 100 to 500 nM and the EC50 [3] is reported as 500 to 2000 nM.
For `C[C@H]1CN(C(=O)OC(C)(C)C(F)(F)F)CCN1c1ncnc2c1c(C1CC1)cn2-c1cccc(OC(F)(F)F)c1` [Compound 265, 1,1,1-trifluoro-2-methylpropan-2-yl (S)-4-(5-cyclopropyl-7-(3-(trifluoromethoxy)phenyl)-7H-pyrrolo[2,3-d]pyrimidin-4-yl)-3-methylpiperazine-1-carboxylate], the EC50 [1] was less than 100 nM, the EC50 [2] was less than 100 nM and the EC50 [3] was 100 to 500 nM.
With `C[C@H]1CN(C(=O)OC(C)(C)C(F)(F)F)CCN1c1ncnc2c1c(C1CC1)cn2-c1cccc(C#N)c1` [Compound 266, 1,1,1-trifluoro-2-methylpropan-2-yl (S)-4-(7-(3-cyanophenyl)-5-cyclopropyl-7H-pyrrolo[2,3-d]pyrimidin-4-yl)-3-methylpiperazine-1-carboxylate] the EC50 [1] was less than 100 nM, the EC50 [2] was less than 100 nM and the EC50 [3] was 500 to 2000 nM.
Work on `C[C@H]1CN(C(=O)OC(C)(C)C)CCN1c1ncnc2c1c(-c1nccnc1F)cn2-c1cccc(Cl)c1` [Compound 267, tert-butyl (S)-4-(7-(3-chlorophenyl)-5-(3-fluoropyrazin-2-yl)-7H-pyrrolo[2,3-d]pyrimidin-4-yl)-3-methylpiperazine-1-carboxylate] yielded an EC50 [1] of 100 to 500 nM, an EC50 [2] of less than 100 nM and an EC50 [3] of 100 to 500 nM.
`C[C@H]1CN(C(=O)OC(C)(C)C)CCN1c1ncnc2c1c(-c1ccccc1F)cn2-c1cc(C#N)ccn1` [Compound 268, tert-butyl (S)-4-(7-(4-cyanopyridin-2-yl)-5-(2-fluorophenyl)-7H-pyrrolo[2,3-d]pyrimidin-4-yl)-3-methylpiperazine-1-carboxylate] was tested, and the EC50 [1] was less than 100 nM, the EC50 [2] was less than 100 nM and the EC50 [3] was less than 100 nM.
`CCc1nccnc1-c1cn(-c2cccc(Cl)c2)c2ncnc(N3CCN(C(=O)OC(C)(C)C)C[C@@H]3C)c12` [Compound 271, tert-butyl (S)-4-(7-(3-chlorophenyl)-5-(3-ethylpyrazin-2-yl)-7H-pyrrolo[2,3-d]pyrimidin-4-yl)-3-methylpiperazine-1-carboxylate] gave an EC50 [1] of 100 to 500 nM, an EC50 [2] of 100 to 500 nM and an EC50 [3] of 100 to 500 nM.
`COc1cccc(-n2cc(-c3cccnc3)c3c(N4CCN(C(=O)OC(C)(C)C)C[C@@H]4C)ncnc32)c1` [Compound 272, tert-butyl-(S)-4-(7-(3-methoxyphenyl)-5-(pyridin-3-yl)-7H-pyrrolo[2,3-d]pyrimidin-4-yl)-3-methylpiperazine-1-carboxylate] showed an EC50 [1] of 100 to 500 nM, an EC50 [2] of 100 to 500 nM and an EC50 [3] of 500 to 2000 nM.
Molecule `C[C@H]1CN(C(=O)OC(C)(C)C)CCN1c1ncnc2c1c(-c1nccnc1C(F)(F)F)cn2-c1cccc(Cl)c1` [Compound 273, tert-butyl (S)-4-(7-(3-chlorophenyl)-5-(3-(trifluoromethyl)pyrazin-2-yl)-7H-pyrrolo[2,3-d]pyrimidin-4-yl)-3-methylpiperazine-1-carboxylate] has an EC50 [1] of 100 to 500 nM, an EC50 [2] of 100 to 500 nM and an EC50 [3] of 500 to 2000 nM.
For `C[C@H]1CN(C(=O)OC(C)(C)C)CCN1c1ncnc2c1c(-c1nccnc1C#N)cn2-c1cccc(Cl)c1` [Compound 274, tert-butyl (S)-4-(7-(3-chlorophenyl)-5-(3-cyanopyrazin-2-yl)-7H-pyrrolo[2,3-d]pyrimidin-4-yl)-3-methylpiperazine-1-carboxylate], the EC50 [1] was 100 to 500 nM, the EC50 [2] was 100 to 500 nM and the EC50 [3] was 500 to 2000 nM.
Molecule `COC(=O)c1nccnc1-c1cn(-c2cccc(Cl)c2)c2ncnc(N3CCN(C(=O)OC(C)(C)C)C[C@@H]3C)c12` [Compound 275, methyl (S)-3-(4-(4-(tert-butoxycarbonyl)-2-methylpiperazin-1-yl)-7-(3-chlorophenyl)-7H-pyrrolo[2,3-d]pyrimidin-5-yl)pyrazine-2-carboxylate] has an EC50 [1] greater than 2000 nM, an EC50 [2] of 500 to 2000 nM and an EC50 [3] greater than 2000 nM.
`C[C@@H]1CN(c2ncnc3c2c(N2CCC[C@H]2C)cn3-c2cccc(Cl)c2)CCN1C(=O)OC(C)(C)C` [Compound 299, tert-butyl (R)-4-(7-(3-chlorophenyl)-5-((R)-2-methylpyrrolidin-1-yl)-7H-pyrrolo[2,3-d]pyrimidin-4-yl)-2-methylpiperazine-1-carboxylate] was tested, and the EC50 [1] was 500 to 2000 nM, the EC50 [2] was 500 to 2000 nM and the EC50 [3] was greater than 2000 nM.
